Read-outs that look alike come from different tables or passages of the source.
What was measured:
souris mâle [1] = experiment: Pentobarbital-induced sleep duration; type: in vivo; details: dose 8 mg/kg i.p., 0,5 h before pentobarbital
Text: Les composés selon l'invention se distinguent du benzhydrylsulfinylacétamide (CRL 40476) précité par une différence d'action vis-à-vis du sommeil barbiturique. […]. Cette différence d'action qui est intéressante sur le plan thérapeutique est illustrée par le tableau IV

souris [2] = experiment: Interaction with reserpine; type: in vivo; details: 32 mg/kg et 12'8 mg/kg i.p.
souris [3] = experiment: Behavioural despair (forced immersion); type: in vivo; details: souris; 8 mg/kg, 32 mg/kg, mais surtout 128 mg/kg i.p.
Procedure, shortened: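 Male mice were dosed i.p. with compound suspended in aqueous gum arabic at 20 ml/kg, 10 per dose. Thirty minutes later each mouse was put in a confined space holding 6 cm of water, and immobility time was scored from minute 2 to minute 6.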

souris [4] = experiment: Spontaneous motility (actimeter); type: in vivo
Procedure, shortened: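 Male mice dosed i.p. as a suspension in aqueous gum arabic (20 ml/kg); 30 min later they are placed in an actimeter and motility is recorded for 30 min, 6 mice per dose, 12 controls.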

rats = experiment: Interaction with amphetamine (stereotypies); type: in vivo; details: rat; amphétamine 2 mg/kg i.p.; doses used, not stated
Procedure: (§1) On a résumé ci-après les résultats des essais pharmacologiques qui ont été entrepris avec les produits selon la présente addition. Dans ces essais, les produits de formule I à étudier ont été administrés par voie intrapéritonéale, en suspension dans une solution aqueuse de gomme arabique, sous un volume de 20 ml/kg chez la souris mâle et sous un volume de 5 ml/kg chez le rat mâle.
L'amphétamine (2 mg/kg)est injectée par voie intrapéritonéale à des lots de 6 rats, 30 min après l'administration de CRL 40933.

souris [5] = experiment: Traction test; type: in vivo; details: 0,5 h after administration, dose not stated
SNC = experiment: Essential activity on the CNS (Tableau I and conclusions of the neuropsychopharmacological study); type: in vivo
Text: Dans le tableau I ci-après, on a consigné un certain nombre de composés selon la formule I de façon nullement limitative, en mentionnant l'activité essentielle sur le SNC.
Les composés de formule I agissent tous sur le SNC. Les produits des exemples 1-3 et 7-8 sont des agents stimulants, en revanche les produits des exemples 4-6 sont des agents sédatifs.

homme = experiment: Clinical trials; type: in vivo
Text: Les études cliniques ont porté sur les troubles de la vigilance, de l'éveil et des états confusionnels, d'une part, et sur les troubles de l'affectivité, du contact et des dépressions, d'autre part.

souris [6] = experiment: Intergroup aggressiveness; type: in vivo; details: dose not stated
Procedure: as §1
Après avoir séjourné pendant 3 semaines dans chacune des moitiés d'une cage séparées par une cloison opaque, des groupes de 3 souris reçoivent le CRL 40933. 30 min plus tard, les deux groupes d'une même cage sont réunis par retrait de la cloison et on note le nombre de combats qui surviennent en 10 min.

souris [7] = experiment: Interaction with apomorphine, mouse; type: in vivo
Procedure, shortened: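 Male mice, 6 per dose, received the test compound intraperitoneally as an aqueous gum arabic suspension (20 ml/kg).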

[8] = Global behaviour and reactivities, mouse; type: in vivo, souris; details: mouse, in vivo, ip, souris, 24 h après administration, read-out: mortalité tardive
souris mâles = experiment: Global behaviour and reactivities, mouse; type: in vivo; details: souris
souris [9] = experiment: Interaction with oxotremorine; type: in vivo
Procedure, shortened: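 Groups of 6 male mice received test compound i.p. as a suspension in aqueous gum arabic (20 ml/kg).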

rats mâles = experiment: Global behaviour and reactivities, rat; type: in vivo
souris [10] = experiment: Motility reduced by hypoxic aggression (acute hypobaric anoxia); type: in vivo; details: 128 mg/kg i.p.
Procedure, shortened: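 Male mice (10 per dose, 20 controls) got compound i.p. as an aqueous gum arabic suspension (20 ml/kg). Thirty minutes later they underwent acute hypobaric anoxia: 600 mm Hg depression over 90 s, then 45 s release. Motility was then recorded in an actimeter for 10 min.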

souris [11] = experiment: Asphyxic anoxia (gallamine triethiodide); type: in vivo; details: 128 mg/kg i.p., 30 min before triiodoéthylate de gallamine 32 mg/kg i.p.
Procedure: as §1
Des lots de 10 souris par dose reçoivent le CRL 40933 30 min avant l'administration intrapéritonéale de 32 mg/kg de triiodoéthylate de gallamine.

souris [12] = experiment: Electroshock; type: in vivo; details: 32 mg/kg à 128 mg/kg i.p.
souris mâle [13] = experiment: Toxicity, DL-0; type: in vivo; details: i.p.
Procedure, shortened: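 Male mice dosed intraperitoneally with compound suspended in aqueous gum arabic at 20 ml/kg. Value is DL-0, the minimal non-lethal dose.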

souris [14] = experiment: Interaction with barbital (sleep); type: in vivo; details: dès la dose de 8 mg/kg i.p., barbital 220 mg/kg i.p.
Procedure, shortened: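 Male mice (groups of 10) dosed intraperitoneally with compound suspended in aqueous gum arabic (20 ml/kg); barbital 220 mg/kg i.p. given half an hour later.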

souris [15] = experiment: Motility reduced by habituation to the enclosure; type: in vivo
Procedure, shortened: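 Male mice (6 per dose, 12 controls) habituated 18 h in actimeters got compound i.p. as aqueous gum arabic suspension, 20 ml/kg. Returned to enclosures immediately; motility recorded for 30 min starting 30 min post-dose.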

rat = experiment: Interaction with apomorphine, rat; type: in vivo; details: apomorphine 0,5 mg/kg s.c., dose not stated
Procedure: as §1
Le CRL 40933 est administré à des lots de 6 rats 0,5 h avant l'injection sous-cutanée de 0,5 mg/kg d'apomorphine.

souris [16] = experiment: Four plates test; type: in vivo; details: 0,5 h after administration, dose not stated

NC(=O)C[S+]([O-])C(c1ccccc1)c1ccc(Cl)cc1 (stereo not shown) [Exemple 7, 4-chlorobenzhydrylsulfinylacétamide]
Action sur la durée du sommeil induit par le pentobarbital (50 mg/kg i.p.) effet (souris mâle [1]): (a)
ptôsis réserpinique (souris [2]): sans modifier
hypothermie réserpinique (souris [2]; 4 h after réserpine 2,5 mg/kg i.p.): s'oppose très faiblement
durée d'immobilité (souris [3]): diminue
motilité spontanée (souris [4]; 2 mg/kg i.p. (lowest dose used)): diminution de motilité
motilité spontanée (souris [4]; 32 mg/kg et 128 mg/kg i.p.): augmentation nette
stéréotypies amphétaminiques (rats): ne modifie pas sensiblement
déficit moteur (traction) (souris [5]): ne provoque pas de déficit moteur majeur
Activité sur le SNC (SNC; in vivo): stimulant
conclusion of the neuropsychopharmacological study: main type of CNS effect (SNC; in vivo): effets de type stimulant
conclusion: effets de type antidépresseur (SNC; in vivo): effets de type antidépresseur qui sont faibles
conclusion: effets anticonvulsivants (SNC; souris mâle): effets anticonvulsivants
action contre l'énurésie (homme): agissent efficacement
résultats en tant que médicaments de l'éveil (homme; notamment vieillard, gélules ou comprimés de 100 à 200 mg, 1 à 3 par jour): excellents résultats
agressivité intergroupes (nombre de combats) (souris [6]): ne modifie pas nettement
comportement de verticalisation et stéréotypies (apomorphine) (souris [7]; 128 mg/kg i.p.): sans modifier
action hypothermisante de l'apomorphine (souris [7]; 128 mg/kg i.p. 0,5 h before apomorphine 16 mg/kg s.c.): s'oppose
mortality at 24 h ([8]; 512 mg/kg i.p.): 33%
mortality at 24 h ([8]; 1024 mg/kg i.p.): 66%
Observations (comportement global et réactivités) (souris mâles; 512 mg/kg i.p.): crampes abdominales, sédation et hypo-réactivité au toucher
Observations (comportement global et réactivités) (souris mâles; 1024 mg/kg i.p.): crampes abdominales, sédation et hypo-réactivité au toucher, respiration dépri-mée
Observations (comportement global et réactivités) (souris mâles; 128 mg/kg i.p.): excitation apparaissant 1,5 h après administration et durant 3 h - réactivité au toucher
Observations (comportement global et réactivités) (souris mâles; 256 mg/kg i.p.): crampes abdominales, respiration déprimée, puis - excitation apparaissant 1,5 h après administration
effet hypothermisant de l'oxotrémorine (souris [9]; 128 mg/kg i.p., 0,5 h before oxotrémorine 0,5 mg/kg i.p.): s'oppose faiblement
signes de stimulation cholinergique périphérique dus à l'oxotrémorine (souris [9]; dose not stated): ne modifie pas
tremblements induits par l'oxotrémorine (souris [9]; dose not stated): ne sont pas influencés
Observations (comportement global et réactivités) (rats mâles; 16 mg/kg i.p.): mydriase 1 h après administration
Observations (comportement global et réactivités) (rats mâles; 64 mg/kg i.p.): hypotonie musculaire pendant 3 h - respiration déprimée pendant 3 h - mydriase pendant 2 à 3 h
récupération motrice après séjour bref dans une enceinte à pression réduite (souris [10]): amélioration nette
délai d'apparition des convulsions et de la mort consécutives à une anoxie asphyxique (souris [11]): diminue
effets convulsivants de l'électrochoc (souris [12]): s'oppose
DL-O (souris mâle [13]): supérieure à 256 mg/kg
durée du sommeil induit par le barbital (souris [14]): diminue
reprise de l'activité chez la souris habituée à son enceinte (souris [15]; 2 mg/kg et 8 mg/kg i.p.): à peine perceptible
reprise de l'activité chez la souris habituée à son enceinte (souris [15]; 32 mg/kg à 128 mg/kg i.p.): net
stéréotypies induites par l'apomorphine (rat): ne modifie pas
nombre de passages punis (souris [16]): n'entraine pas d'augmentation nette

Reference: patent EP0097071A1, “Benzhydryl sulfinylacetamide derivatives and their therapeutical use” (LABORATOIRE L. LAFON Société anonyme dite:, priority 1982, dated 1983)
